Measured values as given in patent publication US9630939B2, “Derivative of homoserine lactone, and preparation method and use thereof” (priority 2013, dated 2017).

How the values were obtained:
[1] = system: C. violaceum CV026; experiment: Preliminary screening of bacterial quorum sensing agonistic / inhibitory activity on LB plate (purple stain / white circle); format: cell-based; settings: for Regulatory activity (bacterial quorum sensing): 1 μl of 0.065M compound spotted on LB plate with C. violaceum CV026, without (agonistic) or with inducer C6-HSL (inhibitory), 30° C., 16-18 h
Procedure: 1.1 Preparation work: different compounds to be tested (Compounds 1-29 prepared in Example 1-29 and intermediates 1-3) were weighted and then were dissolved in 200 μl DMSO (dimethyl sulfoxide) to prepare a solution at a concentration of 0.065M. 5.0 mg inducer, N-hexanoyl homoserine lactone (C6-HSL, purchased from Sigma Company), was weighted and was dissolved in 200 μl DMSO (at a concentration of 0.125M), and the compounds and the inducer were stored at 4[…] for further use. C. violaceum CV026 (donated by Professor McLean J C from Texas State University) in LB culture medium (LB culture medium consisting of 1% (percentage by mass) tryptone, 0.5% (percentage by mass) yeast extract, 1% (percentage by mass) NaCl and water) was cultured under shaking in a shaker at 30 °C, 200 rpm to get the culture medium for further use.
1.2 Method for preliminary screening of compounds having agonistic activity: 400 μl C. violaceum CV026 (at a bacterial concentration of 1×10^8/ml) was added to 5 ml melted semi-solid LB culture medium, and was mixed well; the mixed culture medium was poured into a solid LB plate; when the mixed culture medium was solidified on the plate, lattice was made thereon; 1 μl of the dissolved compounds to be tested (Compounds 1-29 in Examples 1-29, at a concentration of 0.065M) was spotted on the plate; when the compounds on the plate was dried in air, the plate was put in a 30° C. oven upside down and was cultured for a period of 16-18 h. If the compound to be tested has an agonistic effect on C. violaceum CV026 on the LB plate, purple stain will be induced on the LB plate. The agonistic activity of a compound is determined depending on whether purple stain is induced for C. violaceum CV026 on LB plate as well as the purple depth.
1.3 Method for preliminary screening of compounds having inhibitory activity: the inducer C6—HSL was diluted gradiently to 1000 times by means of 2-fold dilution; 15 μl diluted inducer and 400 μl C. violaceum CV026 in exponential phase (at a bacterial concentration of 1×10^8/ml) were mixed well and then were added to a 5 ml melted semi-solid LB culture medium; the mixture of inducer, C. violaceum, and semi-solid LB was poured onto a solid LB plate; when the mixture was solidified on the plate, lattice was made thereon; 1 μl of the dissolved compounds to be tested (Compounds 1-29 prepared in Example 1-29 and intermediates 1-3, at a concentration of 0.065M) was spotted on the plate; when the compounds on the plate were dried in air, the plate was put in a 30° C. oven upside down and was cultured for a period of 16-18 h. […] The inhibitory activity of a compound is preliminary determined depending on the size of the white circle appeared after C. violaceum CV026 was inhibited on LB plate.

[2] = system: C. violaceum CV026; experiment: Measurement of IC50 of compounds having an inhibitory effect on C. violaceum quorum sensing (purple pigment absorbance at 585 nm); format: cell-based; settings: Chromobacterium violaceum, read-out: IC50 of compounds having bacterial quorum sensing inhibitory activity
Procedure: 2.1 The wells of a 12-well plate were marked as initial concentration, 2, 4, 8, 16, 32, 64, 128, 256, DMSO group, and a blank control group from left to right and from up to bottom, respectively.
2.2 The monoclonal C. violaceum CV026 grew on LB solid plate was cultured to exponational phase in a 5 ml fresh LB liquid culture medium, 50 μl was then taken for seeding in a 5 ml LB culture medium, and was cultured until the optical density OD value was about 1.0 at 585 nm; the culture was then mixed well with LB culture medium at a ratio of 1:9 by volume (with OD of about 0.15), and was added to a 12-well plate in an amount of 2 ml/well.
2.3 The compounds preliminarily screened to have quorum sensing inhibitory activity were dissolved respectively in DMSO (at a concentration of 0.065M), and then 10 μl was taken into 10 μl DMSO solution to achieve the purpose of 2-fold dilution, and so on. Each compound was gradiently diluted to a highest fold of 256 (gradient dilution of 2, 4, 8, 16, 32, 64, 128, 256 fold).
2.4 To each well, 15 μl 1000-fold diluted inducer C6—HSL (initial concentration of 0.125M) and 8 μl compound solution at each diluted gradient was added; to DMSO control group, 8 μl DMSO was added; to a blank control group, 8 μl LB culture medium was added. Finally, it was ensured that 2 ml culture in each of the 12-well plate was mixed well.
2.5 The 12-well plate was placed in a 30° C. shaker at 130 rpm and was cultured for 10-12 h.
2.6 After the culture was finished, 1 ml culture was taken from each well and was put in a 1.5 ml EP tube and then was centrifugated at 12000 rpm for 10 mins. The supernatant of the culture was sucked out, and 500 μl DMSO was added to each EP tube to dissolve the purple pigment in the culture. After the pigment was completely dissolved, centrifugation was performed at 12000 rpm for 10 mins. 200 μl supernatant pigment was put in a 96-well culture plate, and was measured for absorbance value at 585 nm by a Microplate Reader, […] the absorbance value and the corresponding concentration were plotted to get the IC50 value.

| SMILES | Regulatory activity (bacterial quorum sensing) [1] | melting point [°C] | IC50 [2] [µM] | inhibitory or agonizing effect on bacterial quorum sensing (in words) [1] |
| --- | --- | --- | --- | --- |
| CC(=O)Nc1ccc(S(=O)(=O)N[C@H]2CCOC2=O)cc1 [Intermediate 2, (S)-N-(4-(N-(2-oxotetrahydrofuran-3-yl)sulfamoyl)phenyl)acetamide] | − |  |  |  |
| Cc1cccc(C(=O)Nc2ccc(S(=O)(=O)N[C@H]3CCOC3=O)cc2)c1 [Compound 20, (S)-3-methyl-N-(4-(N-(2-oxotetrahydrofuran-3-yl)sulfamoyl)phenyl)benzamide] | − | 193 to 194 |  |  |
| O=C(Nc1ccc(S(=O)(=O)N[C@H]2CCOC2=O)cc1)c1cccc(Cl)c1 [Compound 22, (S)-3-chloro-N-(4-(N-(2-oxotetrahydrofuran-3-yl)sulfamoyl)phenyl)benzamide] | − | 213 to 214 |  |  |
| O=C(Cc1ccccc1)Nc1ccc(S(=O)(=O)N[C@H]2CCOC2=O)cc1 |  | 157 to 158 |  |  |
| O=C(Nc1ccc(S(=O)(=O)N[C@H]2CCOC2=O)cc1)c1ccc([N+](=O)[O-])cc1 |  | 257 to 258 |  |  |
| CCCCCC(=O)Nc1ccc(S(=O)(=O)N[C@H]2CCOC2=O)cc1 [Compound 4, (S)-N-(4-(N-(2-oxotetrahydrofuran-3-yl)sulfamoyl)phenyl)hexanamide] | − | 142 to 143 | 29 ± 2.41 |  |
| CCCC(=O)Nc1ccc(S(=O)(=O)N[C@H]2CCOC2=O)cc1 [Compound 2, (S)-N-(4-(N-(2-oxotetrahydrofuran-3-yl)sulfamoyl)phenyl)butyrylamide] | − | 180 to 182 |  |  |
| O=C(Nc1ccc(S(=O)(=O)N[C@H]2CCOC2=O)cc1)c1cccc(F)c1 [Compound 23, (S)-3-fluoro-N-(4-(N-(2-oxotetrahydrofuran-3-yl)sulfamoyl)phenyl)benzamide] | − |  | 7.79 ± 2.68 |  |
| Br.NC1CCOC1=O (stereo not drawn) [Intermediate 1, (L)-homoserine lactone hydrobromide] | + |  |  |  |
| CCCCCCCCC(=O)Nc1ccc(S(=O)(=O)N[C@H]2CCOC2=O)cc1 |  | 150 to 152 |  |  |
| CCCCCCC(=O)Nc1ccc(S(=O)(=O)N[C@H]2CCOC2=O)cc1 [Compound 5, (S)-N-(4-(N-(2-oxotetrahydrofuran-3-yl)sulfamoyl)phenyl)heptamide] | − | 143 to 144 |  |  |
| O=C(Nc1ccc(S(=O)(=O)N[C@H]2CCOC2=O)cc1)c1ccccc1C(F)(F)F [Compound 27, (S)-2-trifluoromethyl-N-(4-(N-(2-oxotetrahydrofuran-3-yl)sulfamoyl)phenyl)benzamide] | − | 186 to 187 | 4.91 ± 0.97 |  |
| CCOc1ccc(C(=O)Nc2ccc(S(=O)(=O)N[C@H]3CCOC3=O)cc2)cc1 |  | 256 to 258 |  |  |
| N#Cc1ccc(C(=O)Nc2ccc(S(=O)(=O)N[C@H]3CCOC3=O)cc2)cc1 |  | 230 to 231 |  |  |
| O=C(Nc1ccc(S(=O)(=O)N[C@H]2CCOC2=O)cc1)c1ccccc1 [Compound 9, (S)-N-(4-(N-(2-oxotetrahydrofuran-3-yl)sulfamoyl)phenyl)benzamide] | − |  | 17.2 ± 2.6 |  |
| O=C(Nc1ccc(S(=O)(=O)N[C@H]2CCOC2=O)cc1)c1ccc(CCl)cc1 [Compound 15, (S)-4-(chloromethyl)-N-(4-(N-(2-oxotetrahydrofuran-3-yl)sulfamoyl)phenyl)benzamide] | + | 251 to 253 |  | agonizing effect |
| O=C(Nc1ccc(S(=O)(=O)N[C@H]2CCOC2=O)cc1)c1ccccc1Cl [Compound 28, (S)-2-chloro-N-(4-(N-(2-oxotetrahydrofuran-3-yl)sulfamoyl)phenyl)benzamide] | − |  | 1.66 ± 0.33 |  |
| CCCCCCCC(=O)Nc1ccc(S(=O)(=O)N[C@H]2CCOC2=O)cc1 [Compound 6, (S)-N-(4-(N-(2-oxotetrahydrofuran-3-yl)sulfamoyl)phenyl)octanamide] | − | 146 to 148 |  |  |
| O=C(Nc1ccc(S(=O)(=O)N[C@H]2CCOC2=O)cc1)c1ccc(F)cc1 [Compound 17, (S)-4-fluoro-N-(4-(N-(2-oxotetrahydrofuran-3-yl)sulfamoyl)phenyl)benzamide] | − | 236 to 237 | 14.7 ± 2.58 |  |
| O=C(Nc1ccc(S(=O)(=O)N[C@H]2CCOC2=O)cc1)c1ccc(Cl)cc1 [Compound 14, (S)-4-chloro-N-(4-(N-(2-oxotetrahydrofuran-3-yl)sulfamoyl)phenyl)benzamide] | − |  |  |  |
| O=C(Nc1ccc(S(=O)(=O)N[C@H]2CCOC2=O)cc1)c1ccc(Br)cc1 [Compound 12, (S)-4-bromo-N-(4-(N-(2-oxotetrahydrofuran-3-yl)sulfamoyl)phenyl)benzamide] | ± | 112 to 113 |  | both an agonizing effect and an inhibitory effect |
| CC(C)(C)c1ccc(C(=O)Nc2ccc(S(=O)(=O)N[C@H]3CCOC3=O)cc2)cc1 [Compound 16, (S)-4-(tert-butyl)-N-(4-(N-(2-oxotetrahydrofuran-3-yl)sulfamoyl)phenyl)benzamide] | − | 207 to 208 |  |  |
| O=C(Nc1ccc(S(=O)(=O)N[C@H]2CCOC2=O)cc1)c1ccccc1F [Compound 24, (S)-2-fluoro-N-(4-(N-(2-oxotetrahydrofuran-3-yl)sulfamoyl)phenyl)benzamide] | − |  | 1.64 ± 0.27 |  |
| CCCc1ccc(C(=O)Nc2ccc(S(=O)(=O)N[C@H]3CCOC3=O)cc2)cc1 |  | 247 to 249 |  |  |
| CCCCC(=O)Nc1ccc(S(=O)(=O)N[C@H]2CCOC2=O)cc1 [Compound 3, (S)-N-(4-(N-(2-oxotetrahydrofuran-3-yl)sulfamoyl)phenyl)pentanamide] | − | 174 to 176 |  |  |
| CCC(=O)Nc1ccc(S(=O)(=O)N[C@H]2CCOC2=O)cc1 [Compound 1, (S)-N-(4-(N-(2-oxotetrahydrofuran-3-yl)sulfamoyl)phenyl) propanamide] | − | 179 to 181 |  |  |
